For test [1], the target named is T1, full-length human CSNK1A1 (Homo sapiens, UniProt P48729).
T1 construct: N-terminal Glutathion-S-Transferase (GST) and full-length human CSNK1A1; purchased Life Technologies PV4174; host or cells: baculovirus infected insect cells
The test is described as follows: CSNK1A1 Assay 2 (ADP-Glo, 1 μM ATP, substrate biotin-Ahx-KRRRAL-pS-VASLPGL). The note with it: Table 3, read-out: CSNK1A1 Assay 2 IC50 [mol/l] (median). Format: biochemical. The procedure, abridged: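 GST-tagged full-length human CSNK1A1 from baculovirus-infected insect cells (about 0.0375 ng/μL), preincubated 15 min at 22 °C with compound in HEPES pH 7.5 buffer, with 1 μM ATP and biotin-Ahx-KRRRAL-pS-VASLPGL substrate. ADP formed read by ADP-Glo luminescence.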
In general terms: In ADP-Glo the light output rises with the ADP produced.

The target of test [2] is T1, full-length human CSNK1A1. In words: CSNK1A1 High ATP Assay (ADP-Glo, 1 mM ATP).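 Note: 30 min kinase reaction at 22 °C with 100 µM peptide substrate.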 Format: biochemical. The conditions noted are these: Table 3, read-out: CSNK1A1 high ATP assay IC50 [mol/l] (median). In outline:
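GST-tagged full-length human CSNK1A1 from baculovirus-infected insect cells (typically about 0.4 ng/μL), pre-incubated with compound 15 min at 22 °C. Reaction with biotinylated peptide biotin-Ahx-KRRRAL-pS-VASLPGL at 1 mM ATP. ADP formed read by ADP-Glo luminescence.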

T1 sequence (P48729 whole entry): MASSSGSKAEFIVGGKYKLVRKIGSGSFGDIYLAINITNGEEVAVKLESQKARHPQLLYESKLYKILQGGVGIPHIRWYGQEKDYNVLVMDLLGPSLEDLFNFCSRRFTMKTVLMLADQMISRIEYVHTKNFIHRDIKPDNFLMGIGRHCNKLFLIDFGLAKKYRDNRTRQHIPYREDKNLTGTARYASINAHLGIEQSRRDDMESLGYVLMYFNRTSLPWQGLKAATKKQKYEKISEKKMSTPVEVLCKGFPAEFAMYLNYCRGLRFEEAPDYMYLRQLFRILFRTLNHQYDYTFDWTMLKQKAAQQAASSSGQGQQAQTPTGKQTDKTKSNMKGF

In the case of `COc1cc(F)nc2c(-c3ccccn3)c(-c3ccnc(NC(=O)C(CC(F)F)c4ccc(F)cc4)c3)[nH]c12` (racemic) [Example 39, (rac)-4,4-difluoro-N-{4-[5-fluoro-7-methoxy-3-(pyridin-2-yl)-1H-pyrrolo[3,2-b]pyridin-2-yl]pyridin-2-yl}-2-(4-fluorophenyl)butanamide], the IC50 in test [1] and in test [2] was 19 nM throughout.
On to `CC(C)(O)c1cc(F)nc2c(-c3ccccn3)c(-c3ccnc(NC(=O)C(CC(F)F)c4ccc(F)cc4)c3)[nH]c12` (racemic) [Example 98, (2RS)-4,4-difluoro-N-{4-[5-fluoro-7-(2-hydroxypropan-2-yl)-3-(pyridin-2-yl)-1H-pyrrolo[3,2-b]pyridin-2-yl]pyridin-2-yl}-2-(4-fluorophenyl)butanamide], for which the IC50 in test [1] and in test [2] was 7.36 nM each time.
As to `O=C(Nc1cc(-c2[nH]c3nc(OC(F)F)cnc3c2-c2ccccn2)ccn1)C(CC(F)F)c1ccc(F)cc1` (stereo not shown) [Example 105, N-{4-[3-(difluoromethoxy)-7-(pyridin-2-yl)-5H-pyrrolo[2,3-b]pyrazin-6-yl]pyridin-2-yl}-4,4-difluoro-2-(4-fluorophenyl)butanamide], the IC50 in test [1] and in test [2] was 10.9 nM throughout.
In the case of `O=C(Nc1cc(-c2[nH]c3cc(F)cnc3c2-c2ccccc2)ccn1)C(CC(F)F)c1ccc(F)cc1` (single isomer, unassigned; (+)) [Example 21, (+)-4,4-difluoro-2-(4-fluorophenyl)-N-[4-(6-fluoro-3-phenyl-1H-pyrrolo[3,2-b]pyridin-2-yl)pyridin-2-yl]butanamide], the IC50 in test [1] was 4.21 nM; in test [2] it was 229 nM.
Taken in the same sequence, the figures for `Cc1cc2[nH]c(-c3ccnc(NC(=O)C(CC(F)F)c4ccc(F)cc4)c3)c(-c3ccccn3)c2nc1F` (single isomer, unassigned) [Example 35, 4,4-difluoro-N-{4-[5-fluoro-6-methyl-3-(pyridin-2-yl)-1H-pyrrolo[3,2-b]pyridin-2-yl]pyridin-2-yl}-2-(4-fluorophenyl)butanamide] were 2.69 nM and 2.69 nM.
Take `O=C(Nc1cc(-c2[nH]c3c(CC4CC4)cc(F)nc3c2-c2ccccn2)ccn1)C(CC(F)F)c1ccc(F)cc1` (single isomer, unassigned) [Example 48, (2R or S)—N-{4-[7-(cyclopropylmethyl)-5-fluoro-3-(pyridin-2-yl)-1H-pyrrolo[3,2-b]pyridin-2-yl]pyridin-2-yl}-4,4-difluoro-2-(4-fluorophenyl)butanamide]: the IC50 in test [1] and in test [2] was 9.91 nM each time.
As to `COc1cc(F)nc2c(-c3ccccn3)c(-c3ccnc(NC(=O)C(CC(F)F)c4ccc(F)cc4)c3)[nH]c12` (single isomer, unassigned; (-)) [Example 41, (−)-4,4-difluoro-N-{4-[5-fluoro-7-methoxy-3-(pyridin-2-yl)-1H-pyrrolo[3,2-b]pyridin-2-yl]pyridin-2-yl}-2-(4-fluorophenyl)butanamide], the IC50 in test [1] and in test [2] was 3.37 nM in each case.
As for `Cc1cnc2c(-c3ccccn3)c(-c3ccnc(NC(=O)C(CC(F)F)c4ccc(F)cc4)c3)[nH]c2c1` (single isomer, unassigned) [Example 9, 4,4-difluoro-2-(4-fluorophenyl)-N-{4-[6-methyl-3-(pyridin-2-yl)-1H-pyrrolo[3,2-b]pyridin-2-yl]pyridin-2-yl}butanamide], the figures for the IC50 in test [1] and in test [2] were 15.8 nM and 945 nM, respectively.
In the case of `O=C(Nc1cc(-c2[nH]c3cccnc3c2-c2ccccn2)ccn1)C(CC(F)F)c1ccc(F)cc1` (single isomer, unassigned; (-)) [Example 12, (−)-4,4-difluoro-2-(4-fluorophenyl)-N-{4-[3-(pyridin-2-yl)-1H-pyrrolo[3,2-b]pyridin-2-yl]pyridin-2-yl}butanamide], the IC50 worked out at 4.45 nM in test [1] and 856 nM in test [2].
The matching figures for `O=C(Nc1cc(-c2[nH]c3nccnc3c2-c2ccccn2)ccn1)[C@@H](CC(F)F)c1ccc(F)cc1` (single isomer, unassigned) [Example 32]: 1.37 nM and 1.37 nM.
Regarding `O=C(Nc1cc(-c2[nH]c3c(OC4CC4)cc(F)nc3c2-c2ccccn2)ccn1)C(CC(F)F)c1ccc(F)cc1` (single isomer, unassigned) [Example 43, N-{4-[7-(cyclopropyloxy)-5-fluoro-3-(pyridin-2-yl)-1H-pyrrolo[3,2-b]pyridin-2-yl]pyridin-2-yl}-4,4-difluoro-2-(4-fluorophenyl)butanamide], the IC50 in test [1] and in test [2] was 10.2 nM each time.
For the compound `COc1cnc2c(-c3ccccn3)c(-c3ccnc(NC(=O)C(CC(F)F)c4ccc(F)cc4)c3)[nH]c2n1` (stereo not shown) [Example 101, 4,4-difluoro-2-(4-fluorophenyl)-N-{4-[3-methoxy-7-(pyridin-2-yl)-5H-pyrrolo[2,3-b]pyrazin-6-yl]pyridin-2-yl}butanamide], the IC50 in test [1] and in test [2] was 4.82 nM in each case.
For the compound `O=C(Nc1cc(-c2[nH]c3c(OCC(F)(F)F)ncnc3c2-c2ccccn2)ccn1)C(CC(F)F)c1ccc(F)cc1` (racemic) [Example 122, (2RS)-4,4-difluoro-2-(4-fluorophenyl)-N-{4-[7-(pyridin-2-yl)-4-(2,2,2-trifluoroethoxy)-5H-pyrrolo[3,2-d]pyrimidin-6-yl]pyridin-2-yl}butanamide], the IC50 came out at 7.69 nM in test [1] and 29.9 nM in test [2].
The matching figures for `O=C(Nc1cc(-c2[nH]c3c(OCC(F)(F)F)ncnc3c2-c2ccccn2)ccn1)C(CC(F)F)c1ccc(F)cc1` (single isomer, unassigned) [Example 123, (2R or S)-4,4-difluoro-2-(4-fluorophenyl)-N-{4-[7-(pyridin-2-yl)-4-(2,2,2-trifluoroethoxy)-5H-pyrrolo[3,2-d]pyrimidin-6-yl]pyridin-2-yl}butanamide]: 4.5 nM and 14 nM.
Taken in the same sequence, the figures for `O=C(Nc1cc(-c2[nH]c3ccc(F)nc3c2-c2cc(F)ccn2)ccn1)C(CC(F)F)c1ccc(F)cc1` (single isomer, unassigned) [Example 96, (2R or S)-4,4-difluoro-N-{4-[5-fluoro-3-(4-fluoropyridin-2-yl)-1H-pyrrolo[3,2-b]pyridin-2-yl]pyridin-2-yl}-2-(4-fluorophenyl)butanamide] were 4.67 nM and 4.67 nM.
As for `Cc1cc2[nH]c(-c3ccnc(NC(=O)C(CC(F)F)c4ccc(F)cc4)c3)c(-c3ccccn3)c2nc1F` (racemic) [Example 33, (rac)-4,4-difluoro-N-{4-[5-fluoro-6-methyl-3-(pyridin-2-yl)-1H-pyrrolo[3,2-b]pyridin-2-yl]pyridin-2-yl}-2-(4-fluorophenyl)butanamide], the IC50 in test [1] and in test [2] was 19.5 nM each time.
Regarding `O=C(Nc1cc(-c2[nH]c3c(N4CCNCC4)ccnc3c2-c2ccccn2)ccn1)C(CC(F)F)c1ccc(F)cc1` (single isomer, unassigned) [Example 93, (2R or S)-4,4-difluoro-2-(4-fluorophenyl)-N-{4-[7-(piperazin-1-yl)-3-(pyridin-2-yl)-1H-pyrrolo[3,2-b]pyridin-2-yl]pyridin-2-yl}butanamide], the IC50 in test [1] and in test [2] was 5.35 nM throughout.
Turning to `O=C(Nc1cc(-c2[nH]c3nccnc3c2-c2ccccn2)ccn1)C(CC(F)(F)F)c1ccc(F)cc1` (racemic) [Example 119, (2RS)-4,4,4-trifluoro-2-(4-fluorophenyl)-N-{4-[7-(pyridin-2-yl)-5H-pyrrolo[2,3-b]pyrazin-6-yl]pyridin-2-yl}butanamide], the figures for the IC50 in test [1] and in test [2] were 2.71 nM and 48.6 nM, respectively.
Taken in the same sequence, the figures for `O=C(Nc1cc(-c2[nH]c3cncnc3c2-c2ccccn2)ccn1)C(CC(F)F)c1ccc(F)cc1` (racemic) [Example 13, 4,4-difluoro-2-(4-fluorophenyl)-N-{4-[7-(pyridin-2-yl)-5H-pyrrolo[3,2-d]pyrimidin-6-yl]pyridin-2-yl}butanamide] were 4.66 nM and 240 nM.
Taken in the same sequence, the figures for `O=C(Nc1cc(-c2[nH]c3c(OCC(F)F)cc(F)nc3c2-c2ccccn2)ccn1)C(CC(F)F)c1ccc(F)cc1` (single isomer, unassigned) [Example 29, (2R or S)—N-{4-[7-(2,2-difluoroethoxy)-5-fluoro-3-(pyridin-2-yl)-1H-pyrrolo[3,2-b]pyridin-2-yl]pyridin-2-yl}-4,4-difluoro-2-(4-fluorophenyl)butanamide] were 3.31 nM and 3.31 nM.

Values taken from patent US12692261B2, “Substituted heterocyclic compounds and therapeutic uses thereof” (Bayer Aktiengesellschaft, priority 2020, dated 2026).
